{"source": "patent US20100144886A1", "about": "“METHOD FOR TREATING PULMONARY ARTERIAL HYPERTENSION” (AGI Therapeutics Research Limited, priority 2006, published 2010)", "key": {"5-HT4E receptor": {"molecular_target": "5-HT4E receptor (Homo sapiens, UniProt Q13639)", "sequence (Q13639 1-378 isoform Q13639-5)": "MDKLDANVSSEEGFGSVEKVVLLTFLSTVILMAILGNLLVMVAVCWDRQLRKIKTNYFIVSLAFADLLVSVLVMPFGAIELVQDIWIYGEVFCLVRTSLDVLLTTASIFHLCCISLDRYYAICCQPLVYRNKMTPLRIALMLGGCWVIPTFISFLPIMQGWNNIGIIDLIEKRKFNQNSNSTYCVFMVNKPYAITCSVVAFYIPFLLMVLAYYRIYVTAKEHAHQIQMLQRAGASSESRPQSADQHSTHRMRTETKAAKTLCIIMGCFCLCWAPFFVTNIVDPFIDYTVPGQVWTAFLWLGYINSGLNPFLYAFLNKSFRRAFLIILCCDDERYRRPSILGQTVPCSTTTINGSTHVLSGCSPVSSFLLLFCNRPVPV", "settings": "at 100×10^−7 M", "description": "(§1) Each of those receptors was analyzed by methods known in the art. Initial assessment of binding at 100×10^−7 M (10 micro molar) was performed in duplicate."}, "5-HT1D receptor": {"molecular_target": "5-HT1D receptor (Homo sapiens, UniProt P28221)", "sequence (P28221 whole entry)": "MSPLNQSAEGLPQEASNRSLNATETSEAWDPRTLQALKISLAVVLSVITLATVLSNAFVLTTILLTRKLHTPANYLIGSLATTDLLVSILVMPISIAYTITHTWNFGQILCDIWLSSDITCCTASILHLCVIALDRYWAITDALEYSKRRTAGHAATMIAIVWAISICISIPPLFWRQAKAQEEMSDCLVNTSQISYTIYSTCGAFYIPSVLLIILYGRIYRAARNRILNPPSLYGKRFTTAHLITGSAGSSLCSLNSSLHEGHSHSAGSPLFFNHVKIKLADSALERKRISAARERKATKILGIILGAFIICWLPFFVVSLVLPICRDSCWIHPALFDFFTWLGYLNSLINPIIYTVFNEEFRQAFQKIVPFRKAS", "settings": "at 100×10^−7 M", "description": "as §1"}, "5-HT5A receptor": {"molecular_target": "5-HT5A receptor (Homo sapiens, UniProt P47898)", "sequence (P47898 whole entry)": "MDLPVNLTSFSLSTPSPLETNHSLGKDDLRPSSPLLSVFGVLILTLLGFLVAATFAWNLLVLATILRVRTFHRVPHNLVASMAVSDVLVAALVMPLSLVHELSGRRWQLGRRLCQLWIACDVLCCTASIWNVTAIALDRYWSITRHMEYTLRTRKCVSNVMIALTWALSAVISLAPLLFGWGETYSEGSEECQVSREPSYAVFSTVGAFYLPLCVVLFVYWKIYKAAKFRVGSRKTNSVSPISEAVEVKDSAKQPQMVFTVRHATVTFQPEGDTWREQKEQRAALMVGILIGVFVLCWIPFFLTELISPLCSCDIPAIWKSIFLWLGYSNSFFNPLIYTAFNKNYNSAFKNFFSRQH", "settings": "at 100×10^−7 M", "description": "as §1"}, "5-HT2B receptor [1]": {"molecular_target": "T1, 5-HT2B receptor (Homo sapiens, UniProt P41595)", "T1 sequence (P41595 whole entry)": "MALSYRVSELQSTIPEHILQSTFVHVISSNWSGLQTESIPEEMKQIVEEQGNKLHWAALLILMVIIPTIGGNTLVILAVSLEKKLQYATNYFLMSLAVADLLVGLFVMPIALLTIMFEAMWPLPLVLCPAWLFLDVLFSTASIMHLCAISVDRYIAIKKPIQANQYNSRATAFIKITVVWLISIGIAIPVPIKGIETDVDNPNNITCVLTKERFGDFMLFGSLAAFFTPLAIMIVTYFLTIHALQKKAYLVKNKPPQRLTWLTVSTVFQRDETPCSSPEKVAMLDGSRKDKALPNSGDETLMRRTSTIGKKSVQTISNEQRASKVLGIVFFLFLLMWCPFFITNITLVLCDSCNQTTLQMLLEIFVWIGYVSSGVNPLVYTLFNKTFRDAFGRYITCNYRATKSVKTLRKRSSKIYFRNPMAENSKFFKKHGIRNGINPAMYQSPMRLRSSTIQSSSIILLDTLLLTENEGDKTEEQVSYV", "description": "as §1"}, "5-HT6 receptor": {"molecular_target": "5-HT6 receptor (Homo sapiens, UniProt P50406)", "sequence (P50406 whole entry)": "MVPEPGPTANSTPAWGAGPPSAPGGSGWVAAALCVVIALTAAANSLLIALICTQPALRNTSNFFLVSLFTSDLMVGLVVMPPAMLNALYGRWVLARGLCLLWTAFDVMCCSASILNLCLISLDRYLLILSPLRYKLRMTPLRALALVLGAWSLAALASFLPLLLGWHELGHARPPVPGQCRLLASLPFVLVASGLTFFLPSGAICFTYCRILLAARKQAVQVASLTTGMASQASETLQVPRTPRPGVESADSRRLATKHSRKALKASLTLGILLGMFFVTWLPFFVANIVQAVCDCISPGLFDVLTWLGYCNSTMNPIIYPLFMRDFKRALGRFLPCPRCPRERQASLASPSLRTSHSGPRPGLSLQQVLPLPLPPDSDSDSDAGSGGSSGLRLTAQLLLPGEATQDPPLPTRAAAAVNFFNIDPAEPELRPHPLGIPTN", "settings": "at 100×10^−7 M", "description": "as §1"}, "Na channel": {"molecular_target": "Na channel", "assay": "Na channel binding", "description": "[…]. […] […].\nThose results are summarized at Table 9."}, "melatonin ML-1 [2]": {"system": "T2, melatonin ML-1", "T2 construct": "other: chicken brain; other: at 100×10^−7 M", "assay": "Melatonin ML1 binding affinity", "design": "species or system chicken", "description": "as §1"}, "[3]": {"molecular_target": "L-type calcium channel binding (CCB) site (Rattus norvegicus, UniProt P22002)", "sequence (P22002 whole entry)": "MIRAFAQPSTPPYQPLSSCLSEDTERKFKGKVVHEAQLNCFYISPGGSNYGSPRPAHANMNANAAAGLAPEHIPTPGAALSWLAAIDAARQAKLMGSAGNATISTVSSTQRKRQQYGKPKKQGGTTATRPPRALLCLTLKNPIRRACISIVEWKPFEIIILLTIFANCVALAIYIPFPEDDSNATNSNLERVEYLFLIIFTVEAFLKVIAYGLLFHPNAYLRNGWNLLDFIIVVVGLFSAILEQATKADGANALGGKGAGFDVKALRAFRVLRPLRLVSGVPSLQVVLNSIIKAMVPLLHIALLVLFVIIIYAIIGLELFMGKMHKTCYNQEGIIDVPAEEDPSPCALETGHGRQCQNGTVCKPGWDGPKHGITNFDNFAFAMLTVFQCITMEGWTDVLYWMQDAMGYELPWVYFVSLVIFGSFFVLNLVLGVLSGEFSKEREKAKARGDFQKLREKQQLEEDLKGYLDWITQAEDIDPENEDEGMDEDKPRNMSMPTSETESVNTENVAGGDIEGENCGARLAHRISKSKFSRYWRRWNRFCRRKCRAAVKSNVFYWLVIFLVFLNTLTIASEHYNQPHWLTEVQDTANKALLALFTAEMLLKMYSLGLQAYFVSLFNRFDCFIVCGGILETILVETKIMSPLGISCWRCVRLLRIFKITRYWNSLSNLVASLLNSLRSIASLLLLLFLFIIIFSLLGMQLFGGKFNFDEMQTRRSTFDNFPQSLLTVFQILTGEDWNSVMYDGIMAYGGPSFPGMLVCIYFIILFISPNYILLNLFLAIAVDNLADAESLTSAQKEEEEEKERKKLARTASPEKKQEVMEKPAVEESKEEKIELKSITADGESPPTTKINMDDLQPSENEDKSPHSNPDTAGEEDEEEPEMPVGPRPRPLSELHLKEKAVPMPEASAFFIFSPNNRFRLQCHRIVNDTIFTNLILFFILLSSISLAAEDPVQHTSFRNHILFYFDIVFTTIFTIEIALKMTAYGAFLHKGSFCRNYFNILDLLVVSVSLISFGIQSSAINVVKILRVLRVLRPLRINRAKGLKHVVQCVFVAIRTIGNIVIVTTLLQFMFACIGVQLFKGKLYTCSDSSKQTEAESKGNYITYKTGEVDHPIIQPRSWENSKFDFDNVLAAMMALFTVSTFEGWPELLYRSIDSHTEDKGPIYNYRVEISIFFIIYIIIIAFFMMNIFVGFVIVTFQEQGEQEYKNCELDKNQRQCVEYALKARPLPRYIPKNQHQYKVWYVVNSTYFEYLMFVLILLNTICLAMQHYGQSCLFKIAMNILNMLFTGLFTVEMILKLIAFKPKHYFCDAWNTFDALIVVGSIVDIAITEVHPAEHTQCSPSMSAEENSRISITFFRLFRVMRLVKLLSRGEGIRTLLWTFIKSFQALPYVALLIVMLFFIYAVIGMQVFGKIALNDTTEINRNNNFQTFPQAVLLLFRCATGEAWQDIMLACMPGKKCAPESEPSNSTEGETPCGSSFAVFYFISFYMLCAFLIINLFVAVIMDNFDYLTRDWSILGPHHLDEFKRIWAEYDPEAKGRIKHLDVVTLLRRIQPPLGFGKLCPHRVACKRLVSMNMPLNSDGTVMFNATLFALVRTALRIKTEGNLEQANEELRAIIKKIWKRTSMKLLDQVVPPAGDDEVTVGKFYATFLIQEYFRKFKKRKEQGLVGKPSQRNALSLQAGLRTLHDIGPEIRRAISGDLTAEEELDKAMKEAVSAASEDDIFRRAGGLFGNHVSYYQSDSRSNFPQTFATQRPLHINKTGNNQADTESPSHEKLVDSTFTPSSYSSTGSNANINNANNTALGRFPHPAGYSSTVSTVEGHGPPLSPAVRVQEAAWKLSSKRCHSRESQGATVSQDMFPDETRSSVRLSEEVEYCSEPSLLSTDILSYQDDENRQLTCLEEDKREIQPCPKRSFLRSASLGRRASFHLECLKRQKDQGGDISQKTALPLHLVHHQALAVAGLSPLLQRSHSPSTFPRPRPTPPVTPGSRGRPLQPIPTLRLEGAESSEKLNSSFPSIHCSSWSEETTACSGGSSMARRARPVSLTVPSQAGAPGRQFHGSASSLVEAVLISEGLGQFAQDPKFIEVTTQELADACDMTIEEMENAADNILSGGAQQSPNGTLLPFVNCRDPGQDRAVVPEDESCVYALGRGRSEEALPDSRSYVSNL", "assay": "L-type calcium channel binding (CCB) affinity", "settings": "rat cerebral cortex; relevant L-type calcium channel site of each blocker", "description": "as §1\nThe binding activity of the reported receptors was analyzed using the following methods.\nThere are three distinct binding sites on the L-type calcium channel receptor. Further, the binding affinity at a particular site can be allosterically modulated by binding at one of the other sites. Thus, testing included the affinity of the different types of calcium channel blockers at their particular site of interaction."}, "melatonin ML-1 [4]": {"molecular_target": "melatonin ML-1", "assay": "Melatonin ML1 binding affinity", "design": "species or system chicken", "settings": "relative potency compared to CCB, Table 2", "description": "as §1"}, "5-HT2B receptor [5]": {"molecular_target": "T1, 5-HT2B receptor", "assay": "5-HT2B binding affinity of racemic verapamil and other calcium channel blockers (5-HT control, Bonhaus method)", "design": "expressed in transfected cells; host or cells: CHO cells", "settings": "relative potency compared to CCB, Table 2", "description": "as §1"}}, "note": "Like-named read-outs stand apart in the source and are kept apart here."}
{"smiles": "COc1ccc(CCN(C)CCC[C@](C#N)(c2ccc(OC)c(OC)c2)C(C)C)cc1OC", "note": "[(R)-verapamil]", "values": [{"measurement": "percentage of binding, 5-HT4E", "setting": "5-HT4E receptor", "result": ">100(24%)"}, {"measurement": "percentage of binding, 5-HT1D", "setting": "5-HT1D receptor", "result": ">100(17%)"}, {"measurement": "percentage of binding, 5-HT5A", "setting": "5-HT5A receptor", "result": ">100(19%)"}, {"measurement": "% Binding, 5-HT2B", "setting": "5-HT2B receptor [1]; at 0.1 (×10^−7 M)", "result": 0, "unit": "%"}, {"measurement": "% Binding, 5-HT2B", "setting": "5-HT2B receptor [1]; at 0.3 (×10^−7 M)", "result": 10, "unit": "%"}, {"measurement": "% Binding, 5-HT2B", "setting": "5-HT2B receptor [1]; at 1.0 (×10^−7 M)", "result": 39, "unit": "%"}, {"measurement": "% Binding, 5-HT2B", "setting": "5-HT2B receptor [1]; at 3.0 (×10^−7 M)", "result": 68, "unit": "%"}, {"measurement": "percentage of binding, 5-HT6", "setting": "5-HT6 receptor", "result": ">100(47%)"}, {"measurement": "IC50", "setting": "Na channel", "result": 1800, "unit": "nM"}]}
{"smiles": "COc1ccc([C@@H]2Sc3ccccc3N(CCN(C)C)C(=O)[C@@H]2OC(C)=O)cc1", "note": "[Diltiazem]", "values": [{"measurement": "percentage of binding, ML-1", "setting": "melatonin ML-1 [2]; at 100×10^−7 M", "result": ">100(9%)"}]}
{"smiles": "COC(=O)C1=C(C)NC(C)=C(C(=O)OC(C)C)C1c1cccc2nonc12", "note": "(centres unmarked) [Isradipine]", "values": [{"measurement": "IC50", "setting": "[3]", "result": 0.46, "unit": "nM"}, {"measurement": "(IC50: ML-1)/(IC50: CCB)", "setting": "melatonin ML-1 [4]", "result": "4,348"}, {"measurement": "IC50", "setting": "melatonin ML-1 [2]; chicken brain", "result": 2000, "unit": "nM"}, {"measurement": "(IC50: 5-HT2B)/(IC50: CCB)", "setting": "5-HT2B receptor [5]", "result": "21,739"}]}
